Results reported in patent US20260347365A1, “COMPOUND FOR REGULATING AND CONTROLLING 15-PGDH ACTIVITY AND PREPARATION METHOD THEREFOR” (SCINNOHUB PHARMACEUTICAL CO.,LTD, priority 2023, published 2026).

biological target: T1, 15-PGDH (Homo sapiens, UniProt P15428); assay: Detection of Activity of 15-PGDH Kinase (inhibition of 15-PGDH enzyme); type: biochemical; details: not given
T1 construct: purchased Sino Biological Inc. 11205-H08E
T1 sequence (P15428 1-266): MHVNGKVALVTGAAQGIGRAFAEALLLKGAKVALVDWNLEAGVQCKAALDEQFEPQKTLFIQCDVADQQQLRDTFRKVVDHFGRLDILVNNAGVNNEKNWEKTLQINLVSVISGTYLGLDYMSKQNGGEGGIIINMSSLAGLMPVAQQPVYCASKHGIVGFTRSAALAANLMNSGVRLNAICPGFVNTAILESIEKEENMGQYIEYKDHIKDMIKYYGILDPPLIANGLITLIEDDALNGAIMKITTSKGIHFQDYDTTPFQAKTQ
Method: • a. A solution of pH 7.5 containing 50 mM Tris-HCl and 0.01% Tween 20 was prepared with ultrapure water as a reaction buffer; • b. a 10 mM mother liquor of the compound to be tested was prepared with DMSO, and then the reaction buffer was used to dilute the mother liquor of the compound to be tested to obtain solution 1 of the compound to be tested at a concentration of 4000 nM, and then the solution 1 of the compound to be tested was serially diluted into solutions 2-10 of the compound to be tested at 9 concentrations with a gradient difference of three-fold. 5 μL of each concentration of solutions 1-10 of the compound to be tested was respectively taken and added into a 384-well plate as test wells; • c. 5 μL of the reaction buffer was added to the 384-well plate as positive control and blank control wells; • d. the reaction buffer was used to prepare a 15-PGDH protein solution at a concentration of 5 ng/μL, 5 μL of the 15-PGDH protein solution was taken and added to the test wells and positive control wells, and 5 μL of the reaction buffer was added to the blank control wells at the same time, then the plate was centrifuged at 2000 rpm for 30 seconds; • e. the reaction buffer was used to prepare 5 mM β-NAD and 2 mM PGF2α, respectively, which were mixed at 1:1 by volume to obtain a substrate mixture, 10 μL of the substrate mixture was taken and added to the test wells, positive control wells and blank control wells to start the reaction; • f. the fluorescence signal value (Ex/Em=340/450) of each well was detected continuously by using a multifunctional microplate reader.
• a) Continuous fluorescence signal values were analyzed by using the “kinetic calculations-slope calculation method” in the PHERAstar Data analysis software to obtain the slope of each test well; • b) the inhibition rate % was calculated by using the following formula:
inhibition rate %=[1−(slope of test well-signal value of positive control well)/(signal value of blank control well-average signal value of positive control well)]×100%. • c) calculation of IC50 and plotting of inhibition rate-dose curves: IC50 values were calculated by fitting compound concentrations and corresponding inhibition rates with a nonlinear regression (dose response-variable slope) via using GraphPad Prism 6.0.
The formula is shown below: Y=Bottom+(Top−Bottom)/(1+10^((Log IC50−X)*HillSlope)), wherein X is a log value of a concentration of the compound, and Y is inhibition rate %.

Compared with `O=C(c1ccc2c(c1)nc(-c1ccc3ocnc3c1)c1nccn12)N1CCCCC1` [Example 2, (4-(benzo[d]oxazol-5-yl)imidazo[1,2-a]quinoxalin-7-yl)(piperidin-1-yl)methanone], `CN1Cc2cc(-c3nc4cc(C(=O)N5CCCCC5)ccc4n4cnnc34)ccc2C1=O` [Example 5, 2-methyl-5-(7-(piperidine-1-carbonyl)-[1,2,4]triazolo[4,3-a]quinoxalin-4-yl) isoindolin-1-one] is higher in IC50: 2 to 5 nM for the first, 5 to 10 nM for the second.

First: Cc1cnc2c(-c3ccc4c(c3)CN(C)C4=O)nc3cc(C(=O)N4CCCCC4)ccc3n12 [Example 3, 2-methyl-5-(1-methyl-7-(piperidine-1-carbonyl)imidazo[1,2-a]quinoxalin-4-yl) isoindolin-1-one]
Second: CN1Cc2cc(C3=Nc4cc(C(=O)N5CCCCC5)ccc4N4CC5(CC5)N=C34)ccc2C1=O [Example 4, 2-methyl-5-(7′-(piperidine-1-carbonyl)-1′H-spiro[cyclopropane-1,2′-imidazo[1,2-a]quinoxaline]-4′-yl) isoindolin-1-one]
The IC50 of the first is higher: 2 to 5 nM for the first, under 2 nM for the second.

same assay, conditions: class symbols; substrates β-NAD and PGF2α, pH 7.5, fluorescence Ex/Em=340/450; read-out: IC50

First: O=C(c1ccc2c(c1)nc(-c1ccc3c(c1)OCCO3)n1ccnc21)N1CCCCC1 [Example 60]
Second: O=C(c1ccc2c(c1)nc(-c1ccc3c(c1)CCN3)n1ccnc21)N1CCCCC1 [Example 47]
The IC50 of the first is higher: 5 to 10 nM for the first, 2 to 5 nM for the second.

`O=C(c1ccc2c(c1)nc(-c1ccccc1)c1nccn12)N1CCC(F)(F)CC1` [Example 16] and `O=C(c1ccc2c(c1)nc(-c1ccccc1)c1nccn12)N1CCOCC1` [Example 17] fall in the same range of IC50: 100 to 1000 nM for the first, 100 to 1000 nM for the second.

`CC(C)CC1CN2C(=N1)C(c1ccc3c(c1)CN(C)C3=O)=Nc1cc(C(=O)N3CCCCC3)ccc12` (centres unmarked) [Example 44] and `CC(C)C1CN2C(=N1)C(c1ccc3c(c1)CN(C)C3=O)=Nc1cc(C(=O)N3CCCCC3)ccc12` (centres unmarked) [Example 43] fall in the same range of IC50: 5 to 10 nM for the first, 5 to 10 nM for the second.

Compared with `CN1Cc2cc(C3=Nc4cc(C(=O)N5CCCCC5)ccc4N4CC(C(C)(C)C)N=C34)ccc2C1=O` (centres unmarked) [Example 45], `CC1CN2C(=N1)C(c1ccc3c(c1)CN(C)C3=O)=Nc1cc(C(=O)N3CCCCC3)ccc12` (centres unmarked) [Example 36] is lower in IC50: 5 to 10 nM for the first, under 2 nM for the second.

First: CN1Cc2cc(-c3nc4cc(C(=O)N5CCCCC5)ccc4c4nc(C(F)(F)F)nn34)ccc2C1=O [Example 79]
Second: Cc1nc2c3ccc(C(=O)N4CCCCC4)cc3nc(-c3ccc4c(c3)CN(C)C4=O)n2n1 [Example 77]
The IC50 of the first is higher: 2 to 5 nM for the first, under 2 nM for the second. The second is the more potent here.

`CN1Cc2cc(C3=Nc4cc(C(=O)N5CCCCC5)ccc4N4CC(C)(C)N=C34)ccc2C1=O` [Example 41] and `CN1Cc2cc(C3=Nc4cc(C(=O)N5CCCCC5)ccc4N4CCN=C34)ccc2C1=O` [Example 35] cannot be ordered by IC50: under 2 nM for the first, under 2 nM for the second.

Compared with `Cn1ccc2cc(-c3nc4cc(C(=O)N5CCCCC5)ccc4c4nccn34)cnc21` [Example 62], `Cn1ccc2cc(-c3nc4cc(C(=O)N5CCCCC5)ccc4n4ccnc34)cnc21` [Example 23] is higher in IC50: under 2 nM for the first, 2 to 5 nM for the second.

`CCOC(=O)c1cn2cc(-c3nc4cc(C(=O)N5CCCCC5)ccc4n4ccnc34)ccc2n1` [Example 30] and `CCOC(=O)c1ccc(-c2nc3cc(C(=O)N4CCCCC4)ccc3n3ccnc23)cc1` [Example 42] fall in the same range of IC50: 5 to 10 nM for the first, 5 to 10 nM for the second.

`Cn1ncc2cc(-c3nc4cc(C(=O)N5CCCCC5)ccc4n4ccnc34)ccc21` [Example 24] and `Cn1ncc2cc(-c3nc4cc(C(=O)N5CCCCC5)ccc4c4nccn34)ccc21` [Example 69] fall in the same range of IC50: 2 to 5 nM for the first, 2 to 5 nM for the second.

`Cn1ccc2cc(-c3nc4cc(C(=O)N5CCCCC5)ccc4c4nccn34)ccc2c1=O` [Example 73] and `Cn1ccc2cc(-c3nc4cc(C(=O)N5CCCCC5)ccc4n4ccnc34)ccc2c1=O` [Example 20] cannot be ordered by IC50: under 2 nM for the first, under 2 nM for the second.

First: O=C1OCc2cc(-c3nc4cc(C(=O)N5CCCCC5)ccc4n4ccnc34)ccc21 [Example 31]
Second: CN1Cc2cc(-c3nc4cc(C(=O)N5CCCCC5)ccc4n4ccnc34)ccc2C1=O [Example 6]
The IC50 of the first is higher: 5 to 10 nM for the first, under 2 nM for the second. The second is the more potent here.

First: Nc1ncc(-c2nc3cc(C(=O)N4CCCCC4)ccc3n3ccnc23)cn1 [Example 7]
Second: Nc1ncc(-c2nc3cc(C(=O)N4CCCCC4)ccc3c3nccn23)cn1 [Example 56]
The IC50 of the first is higher: 2 to 5 nM for the first, under 2 nM for the second.

First: O=C(c1ccc2c(c1)nc(-c1ccc3nccnc3c1)c1nccn12)N1CCCCC1 [Example 19]
Second: O=C(c1ccc2c(c1)nc(-c1ccc3nccnc3c1)n1ccnc21)N1CCCCC1 [Example 67]
The IC50 of the first is higher: 5 to 10 nM for the first, 2 to 5 nM for the second. The second is the more potent here.

`CN1Cc2cc(-c3nc4cc(C(=O)N5CCCCC5)ccc4c4ccnn34)ccc2C1=O` [Example 81] and `CN1Cc2cc(-c3nc4cc(C(=O)N5CCCCC5)ccc4c4ncnn34)ccc2C1=O` [Example 76] cannot be ordered by IC50: under 2 nM for the first, under 2 nM for the second.

`O=C(c1ccc2c(c1)nc(-c1cncnc1)c1nccn12)N1CCCCC1` [Example 8] and `O=C(c1ccc2c(c1)nc(-c1ccc3ncnn3c1)c1nccn12)N1CCCCC1` [Example 27] fall in the same range of IC50: 5 to 10 nM for the first, 5 to 10 nM for the second.

First: Cn1ccc(-c2nc3cc(C(=O)N4CCCCC4)ccc3c3nccn23)cc1=O [Example 61]
Second: CN1Cc2cc(-c3nc4cc(C(=O)N5CCCCC5)ccc4c4nccn34)ccc2C1=O [Example 46, 2-methyl-5-(8-(piperidine-1-carbonyl)imidazo[1,2-c]quinazolin-5-yl) isoindolin-1-one]
The IC50 of the first is higher: 5 to 10 nM for the first, 2 to 5 nM for the second.

First: N#Cc1ccc(-c2nc3cc(C(=O)N4CCCCC4)ccc3c3nccn23)cn1 [Example 50]
Second: O=C(c1ccc2c(c1)nc(-c1cccnc1)n1ccnc21)N1CCCCC1 [Example 57]
The IC50 of the first is higher: 5 to 10 nM for the first, 2 to 5 nM for the second. The second is the more potent here.

First: CN1Cc2cc(-c3nc4cc(C(=O)N5CCCC5)ccc4n4ccnc34)ccc2C1=O [Example 40]
Second: CN1Cc2cc(-c3nc4cc(C(=O)N5CCC(F)CC5)ccc4n4ccnc34)ccc2C1=O [Example 38]
The IC50 of the first is higher: 50 to 100 nM for the first, 2 to 5 nM for the second.

First: CN1Cc2cc(-c3nc4cc(C(=O)N5CCCCC5)ccc4c4cccn34)ccc2C1=O [Example 80]
Second: CN1Cc2cc(-c3nc4ccc(C(=O)N5CCCCC5)cc4c4nccn34)ccc2C1=O [Example 75]
The IC50 of the first is lower: under 2 nM for the first, 100 to 1000 nM for the second. The first is the more potent here.

First: Cn1cc(-c2nc3cc(C(=O)N4CCCCC4)ccc3n3ccnc23)ccc1=O [Example 18]
Second: Cn1cc2cc(-c3nc4cc(C(=O)N5CCCCC5)ccc4n4ccnc34)ccc2n1 [Example 21]
The IC50 of the first is higher: 10 to 20 nM for the first, under 2 nM for the second.

First: CCOC(=O)c1cc2cc(-c3nc4cc(C(=O)N5CCCCC5)ccc4c4nccn34)ccc2[nH]1 [Example 72]
Second: O=C(c1ccc2c(c1)nc(-c1ccc3ncsc3c1)n1ccnc21)N1CCCCC1 [Example 54]
The IC50 of the first is higher: 5 to 10 nM for the first, under 2 nM for the second.

First: CC(C)c1nc2c3ccc(C(=O)N4CCCCC4)cc3nc(-c3ccc4c(c3)CN(C)C4=O)n2n1 [Example 78]
Second: Cc1cn2c(n1)c(-c1ccc3c(c1)CN(C)C3=O)nc1cc(C(=O)N3CCCCC3)ccc12 [Example 34]
The IC50 of the first is higher: 2 to 5 nM for the first, under 2 nM for the second.

First: CN1Cc2cc(C3=Nc4cc(C(=O)N5CCCCC5)ccc4C4=NCCN34)ccc2C1=O [Example 82]
Second: CC1CN=C2C(c3ccc4c(c3)CN(C)C4=O)=Nc3cc(C(=O)N4CCCCC4)ccc3N21 (centres unmarked) [Example 37]
The IC50 of the first is higher: 5 to 10 nM for the first, under 2 nM for the second.

First: O=C(O)c1ccc(-c2nc3cc(C(=O)N4CCCCC4)ccc3n3ccnc23)cc1 [Example 33]
Second: O=C(c1ccc2c(c1)nc(-c1ccc3ncsc3c1)c1nccn12)N1CCCCC1 [Example 10]
The IC50 of the first is lower: under 2 nM for the first, 5 to 10 nM for the second.

First: CN(C)c1ncc(-c2nc3cc(C(=O)N4CCCCC4)ccc3c3nccn23)cn1 [Example 52]
Second: Cn1cc(-c2nc3cc(C(=O)N4CCCCC4)ccc3c3nccn23)cn1 [Example 53]
The IC50 of the first is higher: 5 to 10 nM for the first, 2 to 5 nM for the second. The second is the more potent here.

First: O=C(c1ccc2c(c1)nc(-c1ccc3nccn3c1)n1ccnc21)N1CCCCC1 [Example 59]
Second: O=C(c1ccc2c(c1)nc(-c1ccc3[nH]c(=O)[nH]c3c1)c1nccn12)N1CCCCC1 [Example 29]
The IC50 of the first is higher: 5 to 10 nM for the first, under 2 nM for the second. The second is the more potent here.
